Patent publication US6124242A, “Herbicidal compositions and processes based on ferrodoxin:NADP reductase inhibitors” (BASF Aktiengesellschaft, priority 1998, dated 2000)

What was measured:
[1] = test system: duckweed Lemnna paucicostata; assay: Growth of duckweed (increase in leaf area); type: in vivo; conditions: leaf area after 8-10 days, read-out: Growth inhibition (% of the control); for inhibition at 100 µM: use concentration 10^-4 M; for inhibition at 10 µM: use concentration 10^-5 M; for inhibition at 1 µM: use concentration 10^-6 M
Method: The effect of the herbicidal compounds according to the invention on the growth of duckweed can be seen from the following test results: p The duckweed Lemnna paucicostata was grown under sterile conditions in 250 ml glass vessels containing 100 ml of inorganic nutrient solution supplemented with 1% sucrose, as described by Grossmann et al., Pesticide Science 35 (1992), 283-289. At the beginning of the test, 150 μl of a solution of active ingredient in acetone (stock solution: 100-fold concentrated) were pipetted into Petri dishes (diameter 6 cm, height 1.5 cm; Greiner, Frickenhausen) containing 15 ml of nutrient solution (without added sucrose). Only the solvent component of the active ingredient solution was added to the nutrient solution for the control tests. Then, 4 Lemna plants were introduced into each dish, the dishes were covered with lids and incubated in a controlled-environment cabinet at 25° C. under permanent light conditions (Phillips TL white neon tubes, approx. 40 μmol m^-2 s^-1; λ=400-750 nm). After 8-10 days, the increase in leaf area was determined using an imaging apparatus (Imago, Compulog Computer Syst., Boblingen) as growth parameter, and this was used to calculate the % growth inhibition relative to the control.

[2] = target: T1, ferredoxin:NADP reductase (Spinacia oleracea, UniProt P00455); assay: Inhibition of diaphorase reaction of ferredoxin:NADP reductase; type: biochemical, spinach
T1 construct: from spinach leaves--obtainable from Sigma, Germany; purchased Sigma, Germany; host or cells: spinach leaves
T1 sequence (P00455 56-369): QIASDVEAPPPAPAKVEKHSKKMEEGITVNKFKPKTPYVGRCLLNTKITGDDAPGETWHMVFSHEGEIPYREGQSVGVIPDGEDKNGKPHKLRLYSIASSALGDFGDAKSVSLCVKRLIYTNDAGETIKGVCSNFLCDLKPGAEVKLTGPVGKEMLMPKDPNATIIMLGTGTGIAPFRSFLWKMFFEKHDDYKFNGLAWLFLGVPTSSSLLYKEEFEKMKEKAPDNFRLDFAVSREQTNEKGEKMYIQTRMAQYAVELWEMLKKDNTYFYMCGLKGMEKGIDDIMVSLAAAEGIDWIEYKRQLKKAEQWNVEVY
Method: (§1) Ferredoxin:NADP reductase not only catalyzes the physiologically relevant, reversible reaction of NADP with ferrecoxin (ferredoxin reductase activity), but also the NADPH-dependent reduction of potassium hexacyanoferrate(III) (diaphorase activity). Methods for measuring these reactions are described in the literature (Meth. Enzymol., Volumes 23 and 69).
The diaphorase activity can be determined by incubating, for example, chloroplasts or isolated ferredoxin:NADP reductase (Sigma) in 100 mM Tris/HCl buffer, pH 8.2+0.5 mM potassium hexacyanoferrate(III)+0.5 mM NADPH or an NADPH-regenerating system such as, for example, 0.5 mM NADP+2.5 mM glucose-6-phosphate+1 unit/ml glucose-6-phosphate dehydrogenase at 25° C. and monitoring the decrease in absorption at 420 nm. An incubation mixture without ferredoxin:NADP reductase may be used as blank value.
(§2) The action of a test substance can be tested by dissolving the substance in a suitable solvent such as, for example, dimethyl sulfoxide and pipetting an aliquot of the solution to the above-described incubation mixture. A corresponding aliquot of the pure solvent may be used as control. The action of the test substance can be determined by comparing the absorption changes of the respective incubation batches.

[3] = target: T1, ferredoxin:NADP reductase; assay: Inhibition of ferredoxin reductase reaction of ferredoxin:NADP reductase; type: biochemical, spinach; conditions: 1 mM
Method: as §1
The ferredoxin reductase activity can be determined by incubating, for example, chloroplast extracts or isolated ferredoxin:NADP reductase (Sigma) in 100 mM Tris/HCl buffer, pH 7.8+0.2 mM NADPH+0.65 mg/ml cytochrome C+0.1 mg/ml ferredoxin at 25° C. and measuring the change in the absorption at 550 nm, or the difference in absorption change at 550 nm and 540 nm. An incubation mixture without ferredoxin can be used as blank value.
as §2

inhibition at 50 µM [2]	AU/min *10^-3 (diaphorase reaction, decrease in absorption at 420 nm) ([2]; 50 μM, mean +/- standard deviation of 6 experiments, control (DMSO) 31.3, blank without enzyme 9.4)	inhibition at 1000 µM [3]	E (550 -540) (ferredoxin reductase reaction) ([3]; mean +/- standard deviation of 6 experiments, control (DMSO) 0.692, blank without ferredoxin 0.027)	SMILES	inhibition at 100 µM [1]	inhibition at 10 µM [1]	inhibition at 1 µM [1]
–	–	–	–	CCCCCCCCCCCCCCCCOc1ccc(C(=O)O)cc1S(=O)(=O)NN=c1sc2ccc(S(=O)(=O)O)cc2n1C [A.28]	60%	42%	26%
–	–	–	–	CCCCCCCCCCCCCCCCS(=O)(=O)c1ccc(S(=O)(=O)NN=c2sc3cc(S(=O)(=O)O)ccc3n2C)cc1NC(C)=O [A.46]	56%	33%	13%
–	–	–	–	CCCCCCCCCCCCCCCCS(=O)(=O)Nc1cccc(S(=O)(=O)NN=c2sc3ccc(S(=O)(=O)C(F)F)cc3n2C)c1 [A.47]	18%	–	–
–	–	–	–	CCCCCCCCCCCCCCCCS(=O)(=O)N(C)c1cccc(S(=O)(=O)NN=c2sc3ccc(S(=O)(=O)O)cc3n2C)c1 [A.48]	42%	34%	28%
–	–	–	–	CCCCCCCCCCCCCCCCS(=O)(=O)c1ccc(S(=O)(=O)NN=c2sc3ccc(S(=O)(=O)O)cc3n2C)cc1C(=O)O [A.49]	77%	49%	19%
–	–	–	–	CCCCCCCCCCCCCCCCNS(=O)(=O)c1ccc(S(=O)(=O)NN=c2sc3ccccc3n2C)cc1 [A.51]	29%	–	–
–	–	–	–	CCCCCCCCCCCCCCCCNS(=O)(=O)c1ccc(S(=O)(=O)NN=c2sc3ccc(S(=O)(=O)O)cc3n2C)cc1 [A.52]	89%	12%	–
–	–	–	–	CCCCCCCCCCCCCCCCNS(=O)(=O)c1ccc(S(=O)(=O)NN=c2sc3ccc(S(=O)(=O)C(F)F)cc3n2C)cc1 [A.55]	28%	–	–
102%	9.0 +/- 1.4 AU/min *10^-3	90%	0.093 +/- 0.026	CCCCCCCCCCCCCCCCS(=O)(=O)c1ccc(S(=O)(=O)O)cc1C(=O)NN=c1sc2ccc(S(=O)(=O)O)cc2n1C [B.3]	96%	66%	54%
